Results from US20100028259A1, “USE OF ORGANIC CATION TRANSPORTERS FOR CANCER DIAGNOSIS AND THERAPY” (The Regents of the University of California, priority 2006, published 2010).
Read-outs that look alike come from different tables or passages of the source.

Key:
MDCK-MOCK cells [1] = test: MTT drug sensitivity assay in MDCK-MOCK cells; format: cell-based, canine; conditions: read-out: IC50 MDCK-MOCK
Description: (§1) Cytotoxicity of the platinum-based compounds was measured by MTT (thiazolyl blue tetrazolium bromide) assay. Cells were seeded in 100 μl of the culture medium without any antibiotics in 96-well plates at a predetermined cell density. For HEK 293 cells, poly-D-lysine coated plates were used. After overnight incubation, the platinum-based compounds were then added to the culture medium to give the indicated final concentrations. For the OCT inhibitor studies, the inhibitors (i.e., disopyramide or cimetidine) were added to the medium at a specified concentration immediately before the addition of the platinum-based compounds. After incubation for a specified time period, the drug-containing medium was replaced with fresh, drug-free medium and the incubation was continued for a total of 72 hours (start from the addition of platinum-based compounds). Then, the MTT assay was performed similarly as described in Alley et al., Cancer Res., 48:589-601 (1988). […] The maximal cell growth was the cell growth in the medium without any platinum-based compounds; C is the concentration of the platinum-based compound, and γ is the slope factor.
(§2) Briefly, the cells were seeded in 96-well plates at a density of 5,000 cells/well for the transfected MDCK cells or 12,000 cells/well for the transfected HEK 293 cells. The platinum-based drugs were added on the following day. After the specified time periods of drug exposure, the drug-containing medium was replaced with fresh, drug-free medium, and the incubation was continued for a total of 72 hours (start from the time when the drug was added). After incubation, the cell growth was determined by an MTT assay. Data are expressed as mean±SD from 3 to 6 independent experiments with each performed in quadruplicate. The resistance factor (RF) was defined as the ratio of the mean IC50 value in the MOCK cells to that in the OCT-transfected cells.
(§3) Briefly, MDCK cells were seeded at a density of 5,000 cells/well in 96-well plates and exposed to the test compounds for 7 hours on the following day. After incubation for a total of 72 hours, the cell growth was determined by an MTT assay. The data for carboplatin was taken from Table 1 and was not determined simultaneously with the other compounds. The resistance factor (RF) was defined as the ratio of the mean IC50 value in MDCK-MOCK cells to that in MDCK-hOCT1 cells. Data are expressed as mean±SD from six measurements, and each measurement was performed in quadruplicate.

MDCK-hOCT1 cells [2] = test: MTT drug sensitivity assay in MDCK-hOCT1 cells; format: cell-based, canine; conditions: read-out: IC50 MDCK-hOCT1
Description: as §1, with “After overnight incubation, the platinum-based compounds were then added to the culture medium to give the indicated final concentrations.” left out
as §2, §3

MDCK-hOCT1 cells [3] = test: Cellular accumulation of platinum in MDCK-hOCT1 cells (ICP-MS); format: in vitro ADME, canine; conditions: 2-hr exposure
Description: (§4) For the inhibitor studies, the incubation medium also contained disopyramide (150 μM). […] For the inhibitor studies, the incubation medium also contained cimetidine (1.5 mM). […] After drug exposure, the cells were washed with ice-cold PBS three times and harvested by scraping and centrifugation. The cell-associated platinum was determined by ICP-MS and normalized for protein content. Data are expressed as mean±SD from a single experiment performed in triplicate. Experiments were replicated for OCT1 and OCT2, and similar results were obtained.
(§5) The cellular accumulation of platinum was determined as described in Holzer et al., Mol. Pharmacol., 66:817-823 (2004) with some modifications. Briefly, the cells were grown in 100 mm×20 mm dishes in the culture medium without any antibiotics to over 90% confluence. For HEK 293 cells, poly-D-lysine coated dishes were used. For platinum accumulation, the cells were incubated in the culture medium containing the indicated concentrations of the platinum compounds at 37° C. in 5% CO2 for 2 hr unless specified. After incubation, the dishes were immediately placed on ice and the cells were washed with 6 ml of ice-cold PBS for three times and collected with a rubber policeman. The cell pellets were obtained by centrifugation at 400×g and at 4° C. for 15 min. For the OCT inhibitor studies, the incubation medium also contained the indicated inhibitor (i.e., disopyramide or cimetidine) in addition to the platinum-based compounds. The resulting cell pellets were then dissolved into 200 μl of 70% nitric acid at 65° C. for at least 2.5 hours, and then distilled water containing 10 ppb of iridium (Sigma) and 0.1% Triton X-100 was added to the samples to dilute nitric acid to 7%. The platinum content was measured by inductively plasma coupled mass spectrometry (ICP-MS) in the Analytical Facility at the University of California at Santa Cruz (Santa Cruz, Calif.). Cell lysates from a set of identical cultures were used for BCA protein assay.

HEK-hOCT2 cells [4] = test: MTT drug sensitivity assay in HEK-hOCT2 cells; format: cell-based, human; conditions: drug exposure 7 hour; read-out: IC50 HEK-hOCT2
Description: as §1, with “After overnight incubation, the platinum-based compounds were then added to the culture medium to give the indicated final concentrations.” left out
as §2

HEK-MOCK cells [5] = test: MTT drug sensitivity assay in HEK-MOCK cells (control of HEK-hOCT2); format: cell-based, human; conditions: drug exposure 7 hour; Table 2; read-out: IC50 HEK-MOCK
Description: as §1, §2

HEK-hOCT3 cells = test: MTT drug sensitivity assay in HEK-hOCT3 cells; format: cell-based, human; conditions: drug exposure 7 hour
Description: as §1, with “After overnight incubation, the platinum-based compounds were then added to the culture medium to give the indicated final concentrations.” left out
as §2

HEK-hOCT2 cells [6] = test: Cellular accumulation of platinum in HEK-hOCT2 cells (ICP-MS); format: in vitro ADME, human; conditions: 2-hr exposure
Description: as §4, §5

HEK-MOCK cells [7] = test: Cellular accumulation of platinum in HEK-MOCK cells (ICP-MS); format: in vitro ADME, human; conditions: cimetidine 1.5 mM
Description: as §4
The cellular accumulation of platinum was determined as described in Holzer et al., Mol. Pharmacol., 66:817-823 (2004) with some modifications. Briefly, the cells were grown in 100 mm×20 mm dishes in the culture medium without any antibiotics to over 90% confluence. For HEK 293 cells, poly-D-lysine coated dishes were used. For platinum accumulation, the cells were incubated in the culture medium containing the indicated concentrations of the platinum compounds at 37° C. in 5% CO2 for 2 hr unless specified. […] The platinum content was measured by inductively plasma coupled mass spectrometry (ICP-MS) in the Analytical Facility at the University of California at Santa Cruz (Santa Cruz, Calif.). […]

MDCK-MOCK cells [8] = test: Cellular accumulation of platinum in MDCK-MOCK cells (ICP-MS); format: in vitro ADME, canine; conditions: 2-hr exposure, drug 15 μM
Description: as §4, §5

HEK-MOCK cells [9] = test: MTT drug sensitivity assay in HEK-MOCK cells (control of HEK-hOCT3); format: cell-based, human; conditions: drug exposure 7 hour; Table 3
Description: as §1, §2

HT29 = test: MTT drug sensitivity, colon cancer cell line HT29; format: cell-based, human
Description: as §1, with “After overnight incubation, the platinum-based compounds were then added to the culture medium to give the indicated final concentrations.” left out
(§6) The cell seeding density was 6,000-, 8,000-, 6,000-, 15,000-12,000- and 4,000 cells/well for HCT116, HT29, RKO, SW620, LS180, and DLD cells, respectively. When cimetidine (1.5 mM) was used, it was added to the wells immediately before the addition of the platinum-based drugs. The resistance factor (RF) was defined as the ratio of the mean IC50 value in the presence to that in the absence of cimetidine. Data are expressed as mean±SD from six measurements, and each measurement was performed in quadruplicate.

RKO = test: MTT drug sensitivity, colon cancer cell line RKO; format: cell-based, human
Description: as §1, with “After overnight incubation, the platinum-based compounds were then added to the culture medium to give the indicated final concentrations.” left out
as §6

DLD = test: MTT drug sensitivity, colon cancer cell line DLD; format: cell-based, human
Description: as §1, with “After overnight incubation, the platinum-based compounds were then added to the culture medium to give the indicated final concentrations.” left out
as §6

LS180 = test: MTT drug sensitivity, colon cancer cell line LS180; format: cell-based, human
Description: as §1, with “After overnight incubation, the platinum-based compounds were then added to the culture medium to give the indicated final concentrations.” left out
as §6

HCT116 = test: MTT drug sensitivity, colon cancer cell line HCT116; format: cell-based, human
Description: as §1, with “After overnight incubation, the platinum-based compounds were then added to the culture medium to give the indicated final concentrations.” left out
as §6

SW620 = test: MTT drug sensitivity, colon cancer cell line SW620; format: cell-based, human
Description: as §1, with “After overnight incubation, the platinum-based compounds were then added to the culture medium to give the indicated final concentrations.” left out
as §6

[10] = tested on: six colon cancer cell lines; test: MTT drug sensitivity, summary over the six colon cancer cell lines; format: cell-based, human
Description: as §1, with “After overnight incubation, the platinum-based compounds were then added to the culture medium to give the indicated final concentrations.” left out
The resistance factor (RF) due to the presence of cimetidine was defined as the ratio of the IC50 value in the presence of cimetidine to that in the absence of cimetidine.
as §6

[11] = SAR study Table 4, 7 hours of drug exposure
[12] = drug exposure 7 hour, MTT at 72 hours, Table 1
[13] = absence of cimetidine, read-out: IC50 Control
[14] = cimetidine 1.5 mM, read-out: IC50 Cimetidine-treated

## [Cl][Pt]1([Cl])[NH]C2CCCCC2[NH]1 [[Pt(R,R-DACH)Cl2]]
MDCK-MOCK cells [1]; [11]
  IC50: 15 ± 3.24 µM
MDCK-hOCT1 cells [2]; [11]
  IC50: 0.65 ± 0.26 µM

## NCCN.[Cl][Pt][Cl] [[Pt(Cl2)(en)]]
MDCK-MOCK cells [1]; [11]
  IC50: 33.2 ± 11.5 µM
MDCK-hOCT1 cells [2]; [11]
  IC50: 10.2 ± 4.76 µM

## [Pt(NH3)2(trans-1,2-(OCO)2C6H10)] [[Pt(NH3)2(trans-1,2-(OCO)2C6H10]]
MDCK-MOCK cells [1]; [11]
  IC50: 21.4 ± 2.94 µM
MDCK-hOCT1 cells [2]; [11]
  IC50: 10.8 ± 2.66 µM

## N.NC1CCCCC1.[Cl][Pt][Cl] [cis-[Pt(NH3)(Cy)Cl2]]
MDCK-MOCK cells [1]; [11]
  IC50: 1.42 ± 0.15 µM
MDCK-hOCT1 cells [2]; [11]
  IC50: 0.16 ± 0.03 µM

## [Cl][Pt]1([Cl])[NH]C2CCCCC2[NH]1 [[Pt(S,S-DACH)Cl2]]
MDCK-MOCK cells [1]; [11]
  IC50: 16.2 ± 3.72 µM
MDCK-hOCT1 cells [2]; [11]
  IC50: 0.57 ± 0.18 µM

## N.N.O=C([O-])C1(C(=O)[O-])CCC1.[Pt+2] [carboplatin]
MDCK-hOCT1 cells [3]; drug 15 μM
  cellular platinum accumulation rate in MDCK-hOCT1: 2.77±0.36 pmol/mg protein-hr
MDCK-hOCT1 cells [3]; disopyramide 150 μM
  effect of disopyramide on platinum accumulation rate in MDCK-hOCT1: not inhibited by disopyramide
HEK-hOCT2 cells [4]
  IC50: 61.6 ± 46.3 µM
HEK-MOCK cells [5]
  IC50: 110 ± 46.3 µM
MDCK-MOCK cells [1]; [11]
  IC50: 258 ± 86.3 µM
MDCK-MOCK cells [1]; [12]
  IC50: 258 ± 86.3 µM
HEK-hOCT3 cells
  IC50: 48.1 ± 23.4 µM
HEK-hOCT2 cells [6]
  fold higher platinum accumulation rate, HEK-hOCT2 vs HEK-MOCK: 1.38 fold
HEK-hOCT2 cells [6]; drug 10 μM
  cellular platinum accumulation rate in HEK-hOCT2: 4.17±0.18 pmol/mg protein-hr
HEK-MOCK cells [7]
  effect of cimetidine on platinum accumulation / cellular uptake in HEK-MOCK: little effect
MDCK-MOCK cells [8]
  cellular platinum accumulation rate in MDCK-MOCK: 2.22±0.07 pmol/mg protein-hr
HEK-MOCK cells [9]
  IC50: 84.8 ± 9.71 µM
MDCK-hOCT1 cells [2]; [11]
  IC50: 227 ± 85.8 µM
MDCK-hOCT1 cells [2]; [12]
  IC50: 227 ± 85.8 µM

## N.N.[Cl][Pt][Cl] [cisplatin]
HT29; HT29, absence of cimetidine, read-out: IC50 Control
  IC50: 12.4 ± 3.91 µM
HT29; HT29, cimetidine 1.5 mM, read-out: IC50 Cimetidine-treated
  IC50: 30.8 ± 11 µM
RKO; [13]
  IC50: 8.58 ± 2.38 µM
RKO; [14]
  IC50: 12.5 ± 4.44 µM
DLD; [13]
  IC50: 18.4 ± 7.58 µM
DLD; [14]
  IC50: 32.3 ± 10.3 µM
HEK-hOCT2 cells [4]
  IC50: 1.32 ± 0.18 µM
HEK-MOCK cells [5]
  IC50: 2.95 ± 0.23 µM
MDCK-MOCK cells [1]; [11]
  IC50: 6.32 ± 0.74 µM
MDCK-MOCK cells [1]; [12]
  IC50: 19.6 ± 7.56 µM
LS180; LS180, absence of cimetidine, read-out: IC50 Control
  IC50: 5.72 ± 1.75 µM
LS180; LS180, cimetidine 1.5 mM, read-out: IC50 Cimetidine-treated
  IC50: 8.27 ± 3.35 µM
HCT116; HCT116, absence of cimetidine, read-out: IC50 Control
  IC50: 5.42 ± 1.34 µM
HCT116; HCT116, cimetidine 1.5 mM, read-out: IC50 Cimetidine-treated
  IC50: 10.2 ± 3.23 µM
HEK-hOCT3 cells
  IC50: 2.44 ± 0.71 µM
SW620; SW620, absence of cimetidine, read-out: IC50 Control
  IC50: 12.6 ± 1.95 µM
SW620; SW620, cimetidine 1.5 mM, read-out: IC50 Cimetidine-treated
  IC50: 22.2 ± 4.92 µM
[10]; absence of cimetidine, read-out: mean±SE of IC50 in the six cell lines, control
  IC50: 10.5 ± 2.02 µM
[10]; cimetidine 1.5 mM, read-out: mean±SE of IC50 in the six cell lines, in the presence of cimetidine
  IC50: 19.4 ± 4.32 µM
HEK-MOCK cells [9]
  IC50: 2.83 ± 0.9 µM
MDCK-hOCT1 cells [2]; [11]
  IC50: 3.58 ± 0.3 µM
MDCK-hOCT1 cells [2]; [12]
  IC50: 15.4 ± 2.84 µM

## O=C1[O][Pt]2([NH]C3CCCCC3[NH]2)[O]C1=O [[Pt(S,S-DACH)oxalato]]
MDCK-MOCK cells [1]; [11]
  IC50: 30 ± 14.2 µM
MDCK-hOCT1 cells [2]; [11]
  IC50: 1.45 ± 1.16 µM
